The source of these data is ChEMBL document CHEMBL1157423, “Structural and stereochemical studies of alpha-methylene-gamma-lactone-bearing cembrane diterpenoids from a south china sea soft coral Lobophytum crassum” (2008).

The test system of one assay is P388. The assay can be described thus: Cytotoxicity against mouse P388 cells at 10 uM/L. Type of assay: functional. The settings on record: read-out: GI.
The subject of a further assay is A549. The assay can be described thus: Cytotoxicity against human A549 cells at 10 uM/L. Type of assay: functional. The settings on record: read-out: GI.

With `C=C1C(=O)O[C@@H]2[C@@H]1C[C@H]1O[C@]1(CO)CC/C=C(\C)CC/C=C(\C)[C@@H]2O` [SINULAROLIDE C], in the assay on P388, the inhibition of growth at 10 µM came to 63.8%. For `C=C1C(=O)O[C@@H]2[C@@H]1C/C=C(\CO)CC/C=C(\C)CC/C=C(\C)[C@H]2O` [PRESINULAROLIDE B], the inhibition of growth at 10 µM in the assay with A549 was found to be 64%.

For `C=C1C(=O)O[C@H]2C/C(C)=C/CC/C(C)=C/CC/C(CO)=C/C[C@H]12` [3-DEHYDROXYLPRESINULAROLIDE B], the inhibition of growth at 10 µM in the assay on P388 was 100%; in the assay with A549, 95.7%.

Consider `C=C1C(=O)O[C@@H]2[C@@H]1C[C@H]1O[C@]1(CO)CC/C=C(\C)CC/C=C(\C)[C@H]2O` [SINULAROLIDE B], for which the inhibition of growth at 10 µM with P388 was 100%.
